Data taken from US20240343727A1, “PYRIDAZINONE OR PYRIDINONE COMPOUNDS, PREPARATION METHODS AND USES THEREOF” (InventisBio Co., Ltd., priority 2021, published 2024).
Read-outs that look alike come from different tables or passages of the source.

Tests used:
NCI-H1373 cells = assay: Inhibition of cancer cell growth in NCI-H1373 cells (Cell-titer Glo, 6 days); assay type: cell-based; details: read-out: H1373 Cell Proliferation IC50
Method: Biological Assay Example B: Inhibition of cancer cell growth in NCI-H1373 cells by PARP7 inhibitors
NCI-H1373 cells were cultured in RPMI 1640 medium supplemented with 10% fetal bovine serum, 100 U/mL penicillin and 100 ug/mL streptomycin in a 37° C., 5% CO2 incubator. Fifteen hundred cells were seeded into each well of 96-well plate in RPMI1640 medium containing 10% fetal bovine serum and incubated overnight. Serial diluted compounds for each well were added at a final DMSO concentration of 0.5% and a day zero plate was collected for analysis. Compounds were incubated with the cells for 6 days. Cell growth was assessed using Cell-titer Glo reagent (Promega #G^7572). The luminescence signal was collected on Tecan Spark plate reader. Cell growth is determined by correcting for the cell count on day zero. Inhibition rate is calculated with the formula of % inhibition=100*(DMSO control-compounds)/(DMSO control-Blank). Cell growth inhibition IC50 is calculated with the equation of Y-Bottom+ (Top-Bottom)/(1+10^((LogIC50−X) *Hill Slope)).

PARP7 = molecular target: T1, PARP7 (Homo sapiens, UniProt Q7Z3E1); assay: PARP7 TR-FRET assay (binding, displacement of biotinylated Probe A); details: 6 nM PARP7, 2 nM Probe A, 25° C., 30 min
T1 sequence (Q7Z3E1 1-657): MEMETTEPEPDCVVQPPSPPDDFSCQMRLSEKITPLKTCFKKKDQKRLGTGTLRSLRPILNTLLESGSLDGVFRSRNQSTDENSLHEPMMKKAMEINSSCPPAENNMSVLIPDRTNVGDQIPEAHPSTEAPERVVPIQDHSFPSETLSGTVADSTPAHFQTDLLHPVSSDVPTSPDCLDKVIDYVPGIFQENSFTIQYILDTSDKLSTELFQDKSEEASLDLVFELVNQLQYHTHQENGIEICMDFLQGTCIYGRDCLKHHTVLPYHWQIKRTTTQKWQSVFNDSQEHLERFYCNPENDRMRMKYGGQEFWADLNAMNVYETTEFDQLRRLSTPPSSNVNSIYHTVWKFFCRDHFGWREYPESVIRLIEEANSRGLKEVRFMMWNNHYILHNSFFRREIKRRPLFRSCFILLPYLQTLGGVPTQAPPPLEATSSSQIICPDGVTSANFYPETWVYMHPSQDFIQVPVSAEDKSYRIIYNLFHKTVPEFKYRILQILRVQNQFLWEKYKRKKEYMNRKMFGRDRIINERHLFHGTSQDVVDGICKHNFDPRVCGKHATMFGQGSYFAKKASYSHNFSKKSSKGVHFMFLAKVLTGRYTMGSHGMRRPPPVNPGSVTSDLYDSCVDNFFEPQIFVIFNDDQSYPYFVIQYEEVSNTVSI
In short: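 His-tagged PARP7 at 6 nM was preincubated with compound and 2 nM biotinylated Probe A for 30 min at 25° C (HEPES pH 8.0, NaCl, BSA, DTT, Tween20). Europium-streptavidin/ULight-anti-His FRET was read as the 665/615 nm ratio after a further 30 min. IC50 was fitted from % inhibition normalised to vehicle and blank.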

IC50 (NCI-H1373 cells; Homo sapiens, NCI-H1373, 144 h) | IC50 (PARP7) | IC50 (NCI-H1373 cells) | Compound
> 1000 nM | 100 to 1000 nM |  | Cc1cccc2c(N3CCOC(CC(=O)N4CCN(c5ncc(C(F)(F)F)cn5)CC4)C3)n[nH]c(=O)c12 (single isomer, unassigned) [Compound 101]
< 100 nM | < 100 nM |  | O=C(c1cc(Oc2n[nH]c(=O)c(C(F)(F)F)c2N2CC3(CCC3)C2)ccn1)N1CCN(c2cnc(C(F)(F)F)cn2)CC1 [Compound 272]
100 to 1000 nM | < 100 nM |  | N#Cc1cnc(N2CCN(C(=O)c3cncc(Oc4n[nH]c(=O)c(C(F)(F)F)c4N4CC5(C4)CC(F)(F)C5)c3)CC2)nc1 [Compound 236]
100 to 1000 nM | < 100 nM |  | Cc1c(N2C[C@@H](CC(=O)N3CCN(c4ncc(C(F)(F)F)cn4)CC3)O[C@@H](C)C2)n[nH]c(=O)c1C(F)(F)F (stereo in doubt) [Compound 40]
100 to 1000 nM | < 100 nM |  | O=C(CC1CN(c2cc(C(F)(F)F)c(=O)[nH]n2)c2cc(F)ccc2O1)N1CCN(c2cnc(C(F)(F)F)cn2)CC1 (single isomer, unassigned) [Compound 291]
< 100 nM | < 100 nM |  | O=C(c1cc(Oc2n[nH]c(=O)c(C(F)(F)F)c2N2CC3(C2)CC(F)(F)C3)ccn1)N1CCN(c2cnc(C(F)(F)F)cn2)CC1 [Compound 331]
100 to 1000 nM | < 100 nM |  | Cc1c(Oc2cc(C(=O)N3CCN(c4ncc(C(F)(F)F)cn4)CC3)ccc2F)n[nH]c(=O)c1C(F)(F)F [Compound 63]
> 1000 nM | > 1000 nM |  | O=C(COC1CCOc2c1n[nH]c(=O)c2C(F)F)N1CCN(c2ncc(C(F)(F)F)cn2)CC1 (single isomer, unassigned) [Compound 114]
100 to 1000 nM | < 100 nM |  | O=C(COC1CCNc2c1n[nH]c(=O)c2C(F)(F)F)N1CCN(c2ncc(C(F)(F)F)cn2)CC1 (racemic) [Compound 1]
> 1000 nM | < 100 nM |  | O=C(COC1CCOc2c1n[nH]c(=O)c2Cl)N1CCN(c2ncc(C(F)(F)F)cn2)CC1 (single isomer, unassigned) [Compound 53]
100 to 1000 nM | < 100 nM |  | Cc1c(Oc2cccc(C(=O)N3CCN(c4ncc(C(F)(F)F)cn4)CC3)c2)n[nH]c(=O)c1C(F)(F)F [Compound 15]
100 to 1000 nM | < 100 nM |  | O=C(CC1CN(c2n[nH]c(=O)c3cc(F)ccc23)CCO1)N1CCN(c2ncc(C(F)(F)F)cn2)CC1 (single isomer, unassigned) [Compound 50]
> 1000 nM | < 100 nM |  | Cc1c(Oc2ccc(Cl)c(C(=O)N3CCN(c4ncc(C(F)(F)F)cn4)CC3)c2)n[nH]c(=O)c1C(F)(F)F [Compound 26]
< 100 nM | < 100 nM |  | O=C(C[C@@H]1CN(c2cc(C(F)(F)F)c(=O)[nH]n2)c2ccccc2O1)N1CCN(c2ncc(C(F)(F)F)cn2)CC1 [Compound 34]
< 100 nM | < 100 nM |  | O=C(CO[C@@H]1CCNc2c1n[nH]c(=O)c2C(F)(F)F)N1CCN(c2ncc(C(F)(F)F)cn2)CC1 (single isomer, unassigned) [Compound 2]
> 1000 nM | < 100 nM |  | Cc1c(N2C[C@H](CC(=O)N3CCN(c4ncc(C(F)(F)F)cn4)CC3)O[C@@H](C)C2)n[nH]c(=O)c1C(F)(F)F (single isomer, unassigned) [Compound 42]
100 to 1000 nM | 100 to 1000 nM |  | Cc1c(N2CCOc3ccc(C(=O)N4CCN(c5ncc(C(F)(F)F)cn5)CC4)cc32)n[nH]c(=O)c1C(F)(F)F [Compound 78]
100 to 1000 nM | < 100 nM |  | Cc1c(Oc2ccnc(C(=O)N3CCN(c4ncc(C(F)(F)F)cn4)CC3)c2)n[nH]c(=O)c1C(F)(F)F [Compound 21]
100 to 1000 nM | < 100 nM |  | O=C(CC1CN(c2cc(C(F)(F)F)c(=O)[nH]n2)c2cc(F)ccc2O1)N1CCN(c2ccc(C3CC3)cn2)CC1 (single isomer, unassigned) [Compound 300]
< 100 nM | < 100 nM |  | O=C(c1cc(Oc2n[nH]c(=O)c(C(F)(F)F)c2N2CC3(CCC3)C2)ccn1)N1CCN(c2ncc(C(F)(F)F)cn2)CC1 [Compound 229]

IC50 (NCI-H1373 cells; Homo sapiens, NCI-H1373, 144 h) | IC50 (PARP7) | IC50 (NCI-H1373 cells) | Compound
> 1000 nM | < 100 nM |  | CNC(=O)c1ccc2c(c1)N(c1cc(C(F)(F)F)c(=O)[nH]n1)CC(CC(=O)N1CCN(c3ncc(C(F)(F)F)cn3)CC1)O2 (single isomer, unassigned) [Compound 324]
100 to 1000 nM | < 100 nM |  | Cc1c(N2CCOC(CC(=O)N3CCN(c4ncc(C(F)(F)F)cn4)CC3)C2)n[nH]c(=O)c1C(F)(F)F (single isomer, unassigned) [Compound 39]
100 to 1000 nM | < 100 nM |  | COCCNC(=O)c1ccc2c(c1)N(c1cc(C(F)(F)F)c(=O)[nH]n1)CC(CC(=O)N1CCN(c3ncc(C(F)(F)F)cn3)CC1)O2 (single isomer, unassigned) [Compound 309]
 | < 100 nM | < 100 nM | O=C(CC1CN(c2cc(C(F)(F)F)c(=O)[nH]n2)c2cc(C(=O)N3CCC3)ccc2O1)N1CCN(c2ncc(C(F)(F)F)cn2)CC1 (single isomer, unassigned) [Compound 336]
< 100 nM | < 100 nM |  | CCOC1CN(c2c(Oc3ccnc(C(=O)N4CCN(c5ncc(C(F)(F)F)cn5)[C@H](C)C4)c3)n[nH]c(=O)c2C(F)(F)F)C1 [Compound 339]
> 1000 nM | < 100 nM |  | O=C(c1cccc(Oc2cc(C(F)(F)F)c(=O)[nH]n2)c1)N1CCN(c2ncc(C(F)(F)F)cn2)CC1 [Compound 16]
> 1000 nM | 100 to 1000 nM |  | O=C(c1cccc(Oc2n[nH]c(=O)c(C(F)(F)F)c2CO)c1)N1CCN(c2ncc(C(F)(F)F)cn2)CC1 [Compound 71]
< 100 nM | < 100 nM |  | CC(C)(O)c1cnc(N2CCN(C(=O)c3cccc(Oc4n[nH]c(=O)c(C(F)(F)F)c4N4CC5(CCC5)C4)c3)CC2)nc1 [Compound 349]
 | < 100 nM | > 1000 nM | O=C(CC1CN(c2cc(C(F)(F)F)c(=O)[nH]n2)c2cc(C(=O)N3CCC3)ccc2O1)N1CCN(c2ncc(C(F)(F)F)cn2)CC1 (single isomer, unassigned) [Compound 337]
< 100 nM | < 100 nM |  | O=C(CC1CN(c2cc(C(F)(F)F)c(=O)[nH]n2)c2cc(C(F)F)ccc2O1)N1CCN(c2cnc(C(F)(F)F)cn2)CC1 (single isomer, unassigned) [Compound 145]
100 to 1000 nM | < 100 nM |  | Cc1c(Oc2cccc(C(=O)N3CCN(c4ccc(C#N)cn4)CC3)c2)n[nH]c(=O)c1C(F)(F)F [Compound 27]
100 to 1000 nM | < 100 nM |  | Cc1c(N2C[C@@H](CC(=O)N3CCN(c4ncc(C(F)(F)F)cn4)CC3)O[C@H](C)C2)n[nH]c(=O)c1C(F)(F)F (single isomer, unassigned) [Compound 43]
100 to 1000 nM | < 100 nM |  | O=C(c1cncc(Oc2n[nH]c(=O)c(C(F)(F)F)c2N2CC(C3CC3)C2)c1)N1CCN(c2ncc(Cl)cn2)CC1 [Compound 280]
< 100 nM | < 100 nM |  | N#Cc1ccc2c(c1)N(c1cc(C(F)(F)F)c(=O)[nH]n1)CC(CC(=O)N1CCN(c3ncc(Cl)cn3)CC1)O2 (single isomer, unassigned) [Compound 216]
< 100 nM | < 100 nM |  | O=C(CC[C@@H]1CCCN1c1n[nH]c(=O)c2ccccc12)N1CCN(c2ncc(C(F)(F)F)cn2)CC1 [Compound 48]
< 100 nM | < 100 nM |  | N#Cc1cnc(N2CCN(C(=O)c3cccc(Oc4n[nH]c(=O)c(C(F)(F)F)c4N4CC5(CCC5)C4)c3)CC2)nc1 [Compound 179]
< 100 nM | < 100 nM |  | C[C@@H]1CN(C(=O)c2cncc(Oc3n[nH]c(=O)c(C(F)(F)F)c3N3CC4(C3)CC(F)(F)C4)c2)CCN1c1ncc(Cl)cn1 [Compound 321]
< 100 nM | < 100 nM |  | C[C@@H]1CN(C(=O)c2cc(Oc3n[nH]c(=O)c(C(F)(F)F)c3N3CC4(CCC4)C3)ccn2)CCN1c1cnc(C(F)(F)F)cn1 [Compound 353]
100 to 1000 nM | < 100 nM |  | O=C(CC1CN(c2cc(C(F)(F)F)c(=O)[nH]n2)CCO1)N1CCN(c2ncc(C(F)(F)F)cn2)CC1 (single isomer, unassigned) [Compound 32]
